Results published in patent US10201536B2, “Methods and pharmaceutical compositions for the treatment of bacterial infections in patients suffering from cirrhosis” (INSERM (INSTITUT NATIONAL DE LA SANTE ET DE LA RECHERCHE …, priority 2015, dated 2019).

Columns and labels:
Gp91phox mRNA = Gp91phox mRNA quantification in neutrophils from cirrhotic patients; assay type: cell-based, human; details: patient neutrophils, 2.5 μg/ml, 30 min
Description: (§1) FIG. 3. The TLR7/8 agonist CL097 stimulated Gp91phox RNA production and synthesis in neutrophils from patients with advanced alcohol cirrhosis. Neutrophils from cirrhotic patients were treated in the absence (buffer) or presence of CL097 (2.5 μg/ml) for 30 min at 37° C. and the amount of Gp91phox mRNA was quantified and expressed as percentage of control (Buffer) (Panel A, n=6, *: P<0.05). The expression of Gp91phox was determined by western-blot assays and expressed as percentage±SEM of that of neutrophils of healthy donors (Panel B, n=4, *: P<0.05).
(§2) To determine whether this treatment improves NADPH oxidase activity, superoxyde production (02-°) was measured by the specific cytochrome C reduction assay, after cell stimulation with the bacterial peptide fMLP. […] Promisingly, these CL097 original properties were also observed in a model of ROS production in whole blood from patients (FIG. 5B).

Gp91phox [1] = test: Gp91phox expression by western-blot in neutrophils from cirrhotic patients; assay type: cell-based, human; details: patient neutrophils, 2.5 μg/ml, 30 min
Description: as §1, §2

[2] = tested on: neutrophils from patients with advanced alcoholic cirrhosis; test: Superoxide production, cytochrome C reduction assay, patient neutrophils; assay type: cell-based, human; details: 2.5 μg/ml 15 min, then 1 μM fMLP
Description: (§3) FIG. 4. The TLR7/8 agonist CL097 restored the production of superoxide in neutrophils from patients with advanced alcohol cirrhosis. Neutrophils from healthy donors and patients with advanced alcoholic cirrhosis were treated for 15 min with the TLR7/8 agonist (2.5 μg/ml), then with PBS or 1 μM fMLP. Results represent the mean of superoxide production±SEM expressed in nmole/10^6 cells (n=8, *: P <0.05).
as §2

[3] = tested on: neutrophils from healthy donors; test: Superoxide production, cytochrome C reduction assay, healthy neutrophils; assay type: cell-based, human; details: 2.5 μg/ml 15 min, then 1 μM fMLP
Description: as §3, §2

[4] = tested on: purified neutrophils from patients with advanced alcohol cirrhosis; test: ROS production, luminol-enhanced chemiluminescence, purified patient neutrophils; assay type: cell-based, human
Description: (§4) FIG. 5. The TLR7/8 agonist CL097 restored the production of reactive oxygen species by purified neutrophils and in whole blood from patients. ROS production was measured by the highly sensitive luminol-enhanced chemiluminescence assay with purified neutrophils (0.5×10^6 cells/450μl Hanks Balanced salt solution, Panel A) and with whole blood (20 μl in 450 μl PBS containing 0.120 mM calcium, Panel B) from patients with advanced alcohol cirrhosis. Cells were treated for 15 min with the TLR7/8 agonist […], then with 1 μM fMLP (Panel A). Results represent the peak of chemiluminescence response expressed in cpm (mean±SEM of 8 experiments).
as §2

[5] = tested on: whole blood from cirrhotic patients; test: ROS production, luminol chemiluminescence, whole blood from cirrhotic patients; assay type: cell-based, human
Description: as §4
(§5) FIG. 6. […] Whole blood (20 μl) from healthy donors (Panel A) and cirrhotic patients (Panel B) were treated in 450 μL PBS containing 0.120 mM calcium), in the absence (control) and presence of R848 or CL097 (0.25-5 μg/ml) for 15 min. Cells were then stimulated with 1 μM fMLP. Results represent the peak of chemiluminescence response induced by fMLP and are expressed in cpm (mean±SEM of 4-6, *: P<0.05).
as §2

E coli [6] = test: Bactericidal activity of neutrophils from cirrhotic patients against E coli; assay type: cell-based, human
Description: (§6) FIG. 7. Impaired bactericidal activity of neutrophils from cirrhotic patients and beneficial effects of the TLR7/8 agonist CL097. (A) Neutrophils from healthy volunteers (Control) and cirrhotic patients were incubated with E coli for 5 min, then treated or not (Buffer) with fMLP (1 μM) for 25 min. (B, C): Neutrophils incubated with bacteria were treated without (PBS) and with CL097 (1 μg/ml) for 2 min before stimulation with fMLP for 23 min. Cells were lysed and the number of bacterial colony was determined and expressed as percentage of that of control resting cells (A, n=6), or % of that of resting cells (PBS) in both cell populations (B, C, n=6); *P<0.05 (Data published in Boussif A et al, J Hepatol. 2016 64:1041-8. doi: 10.1016/j.jhep.2015.12.005. Epub 2015 Dec. 21).
(§7) Thus, TLR7/8 activation may provide beneficial effects on neutrophil host-defense activities in patients with cirrhosis.

E coli [7] = test: Bactericidal activity of neutrophils from healthy volunteers against E coli; assay type: cell-based, human
Description: as §6, §7

[8] = tested on: whole blood from healthy donors; test: ROS production, luminol chemiluminescence, whole blood from healthy donors; assay type: cell-based, human; details: 0.25-5 μg/ml 15 min, then 1 μM fMLP
Description: as §5, §2

cirrhotic BDL rats = test: In vivo treatment of cirrhotic bile duct ligated (BDL) rats, ROS production in whole blood; set-up: species or system Wistar female rats; details: 2.2 mg/kg at day 21, parenteral administration, fMLP 1 μM ex vivo
Description: FIG. 11. In vivo treatment of cirrhotic rats by R848 reverses the deficient ROS production in whole blood. The common bile duct with Wistar female rats was ligated (BDL) under general anesthesia (10 mg Avertin, IP) close to the liver hilum immediately below the bifurcation as described previously (Mohammadi et al, Liver Int. 2009, 29(5):692-700). All surgical procedures were performed under sterile conditions. Blood was collected in Eppendorf tubes (approximately 0.5 ml in 10 mM EDTA) with a 1 inch hypodermic needle inserted into the vessel in the mid ventral surface of the tail. White blood cells were counted using a MS9-5V Analyser Counter (Melet Schloesing Laboratories). At day 21, the cirrhotic BDL rats were treated with R848 (2.2 mg/kg) as reported (McCluskie M J et al, Antiviral Res. 69:77-85, 2006). Control rats were not treated. The production of reactive oxygen species were measured in whole blood at the indicated day. Briefly, ROS production was continueously recorded in a thermostated bioluminometer (Berthold LB940) using 3 blood volumes (0.9, 1.8 and 3.75 μl) incubated at 37° C. in 0.5 ml Hanks balanced salt solution (HBSS) containing 10 μM luminol. Cells were treated with cytochalasin b (0.25 μg/ml) for 5-10 min then stimulated with the bacterial-derived peptide fMet-Leu-he (fMLP, 1 μM). ROS production represents the peak of chemiluminescence response in whole blood. […]

Gp91phox [9] = test: gp91phox degradation in healthy PMN treated with purified elastase, western-blot; assay type: cell-based, human; details: 1 H at 37° C., 0.1 and 0.5 unit
Description: (§8) FIG. 8. Elastase induces the degradation of gp91phox and p22phox in healthy PMN. (A and B) Western-blot analysis and densitometric quantification of gp91phox and p22phox in healthy PMN treated in the absence or presence of elastase at 0.1 and 0.5 units for 1 hour. (C and D) Western-blot analysis densitometric quantification of gp91phox and […] in healthy PMN treated in the absence or presence of the elastase inhibitor (NEI) at 100 μM for 15 min before stimulation with fMLP (1 μM) for 45 min. (E) Western-blot analysis densitometric quantification of gp91phox in healthy PMN pretreated in the absence or presence of the elastase inhibitor (NEI) at 100 μM for 15 min before incubation for 45 min with a cell-free degranulation supernatant obtained from fMLP (1 μM, 2 min) stimulated PMN. Blots are representative of 4 experiments and densitometric analyses are cumulative and expressed as percentage of the actin level. […] (F) Sensorgrams of the PMN specific binding and dissociation to the anti-gp91phox antibody (7D5) coated to the CM3 sensorchip, analysed with the Biacore X100, as a function of time. […] Data are representative of 3 independent experiments are expressed as resonance unit (RU). (G) Flow cytometry quantification of the Gp91phox expression at the surface of PMN treated or not (Control) with 0.5 unit Elastase at 4° C. […]

p22phox = p22phox degradation in healthy PMN treated with purified elastase, western-blot; assay type: cell-based, human; details: 1 H at 37° C., 0.5 unit
Description: as §8

Gp91phox [10] = test: Biacore SPR binding of intact PMN to anti-gp91phox 7D5 antibody; set-up: species or system human; details: PMN pretreated 1 H at 37° C. (0.5 units) and washed
Description: as §8

Gp91phox [11] = test: Flow cytometry of 7D5 antibody binding to gp91phox at the PMN surface after elastase at 4° C.; assay type: cell-based, human; details: PMN treated at 4° C. for 1 H, 0.5 unit
Description: as §8

CCOCc1nc2c([nH]1)c(N)nc1ccccc12 [CL097]
Gp91phox mRNA level (Gp91phox mRNA): increased
expression of Gp91phox (western-blot) (Gp91phox [1]): restored
fMLP-induced superoxide production [2]: potentiated fMLP-induced superoxide production to a level similar of that of neutrophils from healthy donors
optimal production of superoxide [3]: further increased
fMLP-induced ROS production ([4]; agonist 15 min, then 1 μM fMLP): strongly potentiate
ROS production by agonist by itself ([4]; agonist alone, 15 min): weak production of ROS
ROS production in whole blood (stimulation and potentiation properties) ([5]; whole blood from patients): also observed
bacterial killing by agonist alone (E coli [6]; neutrophils from cirrhotic patients, 1 μg/ml): significant bacterial killing
fMLP-induced bacterial killing (E coli [6]; patients' neutrophils, 1 μg/ml 2 min before fMLP 23 min): strongly potentiated
fMLP-induced bacterial killing (E coli [7]; control neutrophils, 1 μg/ml 2 min before fMLP 23 min): non significant increase
bacterial killing by agonist alone (E coli [7]; neutrophils from controls, 1 μg/ml): significant bacterial killing

CCOCc1nc2c(N)nc3ccccc3c2n1CC(C)(C)O [R848, 4-amino-2-ethoxymethyl-α,α-dimethyl-1H-imidazol[4,5-c]quinoline-1-ethanol]
improvement of ROS production, potency compared with CL097 ([5]; whole blood from cirrhotic patients, 0.25-5 μg/ml 15 min, then 1 μM fMLP): more potent than CL097
improvement of ROS production, potency compared with CL097 [8]: more potent than CL097
ROS production in whole blood of cirrhotic rats (cirrhotic BDL rats): reversed the deficient ROS production

elastase: purified elastase, a serine protease produced by neutrophils
gp91phox degradation (Gp91phox [9]): approximately 50%
p22phox degradation (p22phox): degradation of p22phox was observed
PMN binding to 7D5 antibody (SPR) (Gp91phox [10]): markedly reduced
7D5 antibody binding (FACS scan) (Gp91phox [11]): strongly inhibited
